# Results as given in patent publication US20060149045A1, “Steroid compounds with anti-tumor activity” (priority 2002, published 2006).
# Legend:
# [1] = tested on: U-373 MG, Hs578T and/or A549 cancer cells; test: Cell migration, summary over the cell lines; assay type: cell-based; conditions: at the weak studied concentrations; result in words
# Method: (§1) Cells of different cancer lines, i.e. U-373 MG (Glioma cancer), Hs578T (breast cancer) and A549 (lung cancer) were seeded on culture flask 48 hours before the migration experiment. On the test day, cells were treated with or without compounds UBS881, UBS1664, UBS3285, UBS3327 and UBS3328 in closed Falcon dishes containing a buffered medium at a controlled temperature (37.0±0.1° C.) for 12 or 24 hours. The compounds were administered at two non-cytotoxic concentrations (10^−6 M and 10^−7 M) for UBS881 and UBS1664, and at 4 concentrations (10^−7 M to 10^−10 M) for UBS3285, UBS3327 and UBS3328. Migration of the cells was observed by means of a CCD-camera mounted on a phase-contrast microscope. A statistical analyse of the migration, with the non-parametric Mann-Whitney test, was established for 25% of the most motile cells and for the entire cell population for UBS881 and UBS1664, and established for 25%-50% of the most motile cells and for the entire cell population for UBS3285, UBS3327 and UBS3328 compounds. The table F below illustrates the anti-migratory effect of the compound according to the invention.
# [2] = tested on: U-373 MG (Glioma cancer) cells; test: Cell migration, phase-contrast video microscopy; assay type: cell-based, human
# Method: as §1
# A549 (lung cancer) cells = test: Cell migration, phase-contrast video microscopy; assay type: cell-based, human
# Method: as §1
# [3] = tested on: six human cancer cell lines (Hs683, U-373 MG, HCT-15, LoVo, A549, J82); test: MTT test, summary over the six cell lines; assay type: cell-based; conditions: for cytotoxic / anti-tumor activity on the 6 tested cell lines: result in words, FIGS. 3, 4 and 6
# Method: In order to characterize the in vitro activities of the compounds according to the invention, MTT tests were carried out. The MTT test, which is a well-known test in the art, is an indirect technique that rapidly measures, i.e. within 5 days, the effect of a given product on the overall cell growth. This test measures the number of metabolically active living cells that are able to transform the MTT product (3-(4,5-dimethylthiazol-2-yl)-2,5 diphenyl tetrazolium bromide), having a yellowish color, to the blue product formazan dye by mitochondrial reduction. The amount of formazan obtained at the end of the experiment is measured with a spectrophotometer and is directly proportional to the number of living cells. Determination of the optical density enables a quantitative measurement of the effect of the investigated compounds as compared to the control condition (untreated cells) and to compare it to other reference compound. In the following examples different compounds according to the invention were tested and compared to the reference compound being UBS881.
# Six human cancer cell lines, described in Table D, were tested in the presence of the extract according to the invention. These cell lines represent four histological cancer types, being glioma cancer (cell line Hs683 and U-373 MG), colon cancer (cell lineHCT-15 and LoVo), lung cancer (cell line A549) and bladder cancer (cell line J82). […]
# After 72 hours of incubation at 37° C. with the compound (experimental conditions) or without the compound (control condition), the medium was replaced by 100 μl MTT at the concentration of 1 mg/ml dissolved in RPMI. […] The micro wells were shaken for 5 minutes and read on a spectrophotometer at the wavelengths of 570 nm corresponding to the maximum formazan absorbance wavelength, and of 630 nm, which is the background noise wavelength.
# For each experimental condition, the mean OD associated with the SEM (standard error of the mean) for each condition (6 wells) was calculated. The percentage of remaining living cells in comparison with the control was calculated. […]
# [4] = tested on: Hs578T (breast cancer) cells; test: Cell migration, phase-contrast video microscopy; assay type: cell-based; conditions: for 24 hours on the 25% of most motile cells, at 10^−7 M
# Method: as §1
# [5] = for 24 hours on the 25% of most motile cells, at 10^−7 M
structure (smiles),measurement,setting,value
COc1ccc(OC)c(C2CC3C4CC(=O)C5=CC(=O)CCC5(C)C4CCC3(C)C2C(C)=O)c1 (centres unmarked) [UBS1664],migration level of cancer cells,[1],induced a decrease in the migration level
same,Max. effects (anti-migratory effect),[2]; [5],−27%/p < 0.001
same,Max. effects (anti-migratory effect),"A549 (lung cancer) cells; for 12 hours on the entire cell population, at 10^−7 M",−15%/p < 0.05
same,cytotoxic / anti-tumor activity on the 6 tested cell lines,[3],induced cytotoxic activity on all 6 tested cell lines
COc1ccc(OC)c(C(C)(O)C2CCC3C4CC=C5CC(O)CCC5(C)C4CCC32C)c1 (centres unmarked) [UBS1740],cytotoxic / anti-tumor activity on the 6 tested cell lines,[3],Hs683 and A549 cell lines were most sensitive
COc1ccc(OC)c(C(C)(O)C2CCC3C4CC(=O)C5=CC(=O)CCC5(C)C4CCC32C)c1 (centres unmarked) [UBS1819],IC50,"[3]; Homo sapiens, 72 hours incubation, range over all 6 cell lines",10 to 50 µM
COc1ccc(OC)c(C2CC3C4CC=C5CC(OC6O[C@H](CO)[C@H](O)[C@H](O)[C@H]6O)CCC5(C)C4CCC3(C)C2C(C)=O)c1 (some centres unmarked) [UBS3285],migration level of cancer cells,[1],induced a decrease in the migration level
same,Max. effects (anti-migratory effect),"[2]; for 24 hours on the 50% of most motile cells, at 10^−8 M",−22%/p < 0.001
COc1ccc(OC)c(C2CC3C4CC=C5CC(OC6O[C@H](CO)[C@@H](O[C@@H]7O[C@H](CO)[C@@H](O)[C@H](O)[C@H]7O)[C@H](O)[C@H]6O)CCC5(C)C4CCC3(C)C2C(C)=O)c1 (some centres unmarked) [UBS3327],migration level of cancer cells,[1],induced a decrease in the migration level
same,Max. effects (anti-migratory effect),"A549 (lung cancer) cells; for 24 hours on the 25% of most motile cells, at 10^−8 M",−34%/p < 0.001
same,Max. effects (anti-migratory effect),[4],−21%/p < 0.001
COc1ccc(OC)c(C2CC3C4CC=C5CC(OC6O[C@H](CO[C@@H]7O[C@H](CO)[C@@H](O)[C@H](O)[C@H]7O)[C@@H](O)[C@H](O)[C@H]6O)CCC5(C)C4CCC3(C)C2C(C)=O)c1 (some centres unmarked) [UBS3328],migration level of cancer cells,[1],induced a decrease in the migration level
same,Max. effects (anti-migratory effect),"[2]; for 12 hours on the entire cell population, at 10^−10 M",−27%/p < 0.001
same,Max. effects (anti-migratory effect),A549 (lung cancer) cells; [5],−40%/p < 0.001
